Laboratory results as given in patent US20160046592A1, “PHARMACEUTICAL COMPOSITION FOR THE TREATMENT OF DIABETES” (Ajinomoto Co., Inc., priority 2013, published 2016).
Structures can show the parent of a compound that is named as a salt.

Target: T1, PPAR-α (Homo sapiens, UniProt Q07869)
T1 construct: expressed in transfected cells; host or cells: CV-1 (African green monkey kidney)
T1 sequence (Q07869 167-468): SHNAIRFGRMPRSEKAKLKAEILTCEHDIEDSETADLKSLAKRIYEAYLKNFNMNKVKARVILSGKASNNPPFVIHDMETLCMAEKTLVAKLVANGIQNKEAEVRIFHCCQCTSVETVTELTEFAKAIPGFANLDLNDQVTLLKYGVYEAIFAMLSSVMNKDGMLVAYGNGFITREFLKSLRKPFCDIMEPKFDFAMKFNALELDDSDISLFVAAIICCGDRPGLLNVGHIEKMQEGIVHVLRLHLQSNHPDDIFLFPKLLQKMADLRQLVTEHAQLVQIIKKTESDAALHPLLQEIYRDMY
Experiment: Measurement of PPAR-α activity (GAL4 luciferase reporter assay in CV-1 cells)
Format: cell-based
Conditions: 100(A/B): A = maximum PPAR-α activity of test compound at 3, 10, 30 and 100 μM, B = activity of the compound of WO/2011/058154 at 100 μM, 18 to 20 hours, read-out: Relative fold induction (%) of PPAR α
How it was run: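 CV-1 cells were co-transfected with a UAS×5-TK-Luc reporter and a hGR-GAL4-hPPARα (LBD 167-468aa) expression plasmid, then dosed with compound for 18 to 20 h at 37 °C, with Bright-Glo luciferase read-out. Relative fold induction (%) is the maximum activity at 3, 10, 30 or 100 μM divided by the activity of a WO/2011/058154 reference compound at 100 μM.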

Compound	Emax [%]
COC[C@@H]1CC[C@@H](C(=O)O)N1C(=O)c1cccc(COc2ccc(-c3cc(F)c(F)cc3SC)cc2)c1 [Example 62, (2S,5S)-1-[3-[[4-(4,5-Difluoro-2-methylsulfanyl-phenyl)phenoxy]methyl]benzoyl]-5-(methoxymethyl)pyrrolidine-2-carboxylic Acid]	14
CSc1cc(F)c(F)cc1-c1ccc(OCc2cccc(C(=O)N3C[C@H](N(C)C)C[C@H]3C(=O)O)c2)cc1 [Example 63, (2S,4R)-1-[3-[[4-(4,5-Difluoro-2-methylsulfanyl-phenyl)phenoxy]methyl]benzoyl]-4-(dimethylamino)pyrrolidine-2-carboxylic Acid Trifluoroacetate]	13
